Measured values taken from ChEMBL document CHEMBL1201862, “PubChem BioAssay data set” (2004).
The source made the active and inactive calls.

Experiments:
[1] = target: E3 ubiquitin-protein ligase Mdm2 (Homo sapiens, UniProt Q00987); assay: enhancers of MDM2-luciferase reporter signal, concentration-effect titration, project on inhibitors of MDM2 ubiquitin ligase, cellular assay, luminescent readout, 384-well plate format (AID 1394); assay type: functional;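 also: MDM2 E3 inhibitors raise luminescence so EC50 is for signal enhancement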
[2] = target: T1, Mannose-6-phosphate isomerase (Homo sapiens, UniProt P34949); assay: inhibitors of human PMI, primary screen, biochemical, fluorescence intensity, coupled assay (AID 1209)
T1 sequence (P34949 whole entry): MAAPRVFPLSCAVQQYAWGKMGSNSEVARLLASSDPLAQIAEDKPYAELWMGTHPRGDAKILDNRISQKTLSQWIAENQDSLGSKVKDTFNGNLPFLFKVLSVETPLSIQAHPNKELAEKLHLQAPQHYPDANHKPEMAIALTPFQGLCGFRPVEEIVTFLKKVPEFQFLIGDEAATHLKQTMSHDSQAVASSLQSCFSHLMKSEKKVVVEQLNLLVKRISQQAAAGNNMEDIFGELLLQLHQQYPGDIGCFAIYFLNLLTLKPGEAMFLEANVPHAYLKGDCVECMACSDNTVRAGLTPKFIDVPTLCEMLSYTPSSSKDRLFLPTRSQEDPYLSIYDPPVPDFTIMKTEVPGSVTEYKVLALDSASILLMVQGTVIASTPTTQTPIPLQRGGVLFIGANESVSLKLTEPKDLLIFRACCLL

[3] = tested on: Streptococcus sp. 'group A'; assay: growth inhibition of control SK(-) GAS strain, dose response, counter-screen for streptokinase expression inhibitor project, luminescence, kanamycin, BacTiterGlo, confirmation (AID 1900); assay type: functional, organism-based
Streptococcus = assay: Group A Streptococcus viability loss, dose response, counter-screen for streptokinase expression inhibitor project, luminescence, BacTiterGlo (AID 1915); assay type: functional, organism-based;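 also: potency for reduction of bacterial viability or growth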
Streptokinase A = target: T2, Streptokinase A (Streptococcus pyogenes serotype M1, UniProt P10520); assay: S. pyogenes streptokinase expression inhibitors, potency, dose response, plasminogen activation absorbance, OD405 (AID 1914); assay type: functional, Streptococcus pyogenes M1 GAS;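 also: secreted streptokinase activity via plasminogen activation per viability signal from cell pellet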
T2 sequence (P10520 whole entry): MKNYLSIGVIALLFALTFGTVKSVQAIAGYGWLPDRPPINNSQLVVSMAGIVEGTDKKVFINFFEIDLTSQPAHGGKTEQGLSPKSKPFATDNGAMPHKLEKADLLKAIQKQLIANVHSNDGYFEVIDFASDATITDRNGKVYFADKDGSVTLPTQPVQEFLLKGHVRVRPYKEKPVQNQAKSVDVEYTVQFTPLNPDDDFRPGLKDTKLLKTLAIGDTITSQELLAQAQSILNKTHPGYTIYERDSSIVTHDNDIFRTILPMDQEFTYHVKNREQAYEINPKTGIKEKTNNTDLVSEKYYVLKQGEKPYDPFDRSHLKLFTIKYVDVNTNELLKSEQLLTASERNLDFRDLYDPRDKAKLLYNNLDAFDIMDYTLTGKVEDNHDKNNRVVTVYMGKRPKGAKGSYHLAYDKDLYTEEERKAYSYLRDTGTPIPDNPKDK

[4] = target: T1, Mannose-6-phosphate isomerase; assay: human PMI inhibitors, high substrate, primary screen, biochemical, fluorescence intensity, high mannose 6-phosphate (AID 1220)
Protein skinhead-1 = target: T3, Protein skinhead-1 (Caenorhabditis elegans, UniProt P34707); assay type: functional
T3 sequence (P34707 whole entry): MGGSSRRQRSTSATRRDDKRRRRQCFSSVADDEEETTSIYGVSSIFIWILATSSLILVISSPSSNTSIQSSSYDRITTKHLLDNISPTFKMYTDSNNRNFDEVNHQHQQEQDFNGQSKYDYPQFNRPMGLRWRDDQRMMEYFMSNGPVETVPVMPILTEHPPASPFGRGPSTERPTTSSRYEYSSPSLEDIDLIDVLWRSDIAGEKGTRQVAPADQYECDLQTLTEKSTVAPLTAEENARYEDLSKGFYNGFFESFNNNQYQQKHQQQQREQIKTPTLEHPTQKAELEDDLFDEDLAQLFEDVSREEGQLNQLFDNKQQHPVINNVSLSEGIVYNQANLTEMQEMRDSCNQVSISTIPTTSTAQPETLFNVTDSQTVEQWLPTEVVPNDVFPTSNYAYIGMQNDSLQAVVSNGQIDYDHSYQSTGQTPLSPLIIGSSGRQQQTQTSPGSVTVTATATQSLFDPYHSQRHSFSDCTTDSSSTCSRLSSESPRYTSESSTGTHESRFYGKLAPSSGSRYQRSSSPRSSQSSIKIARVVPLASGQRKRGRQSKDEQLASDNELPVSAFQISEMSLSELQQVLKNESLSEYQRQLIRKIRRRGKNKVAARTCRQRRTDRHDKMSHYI

[5] = LGR2 antagonists, dose response, cell-based, HEK293, CRE-luciferase reporter, cherry pick, set 2 (AID 743343); assay type: functional;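 also: transfected cells were stimulated with diluted bursicon conditioned medium after compound addition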
[6] = MC4R antagonists, dose response, counter-screen for LGR2 antagonist project, cell-based, plate reader, cherry pick (AID 743444); assay type: functional;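 also: transfected HEK 293 cells stimulated with alpha-MSH peptide; potency of inhibitors of the alpha-MSH evoked signal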
Estrogen receptor = target: T4, Estrogen receptor (Homo sapiens, UniProt P03372); assay: potentiators of ERα–SRC-1 coactivator binding, dose response, biochemical, TR-FRET, ERα LBD (AID 737)
T4 sequence (P03372 whole entry): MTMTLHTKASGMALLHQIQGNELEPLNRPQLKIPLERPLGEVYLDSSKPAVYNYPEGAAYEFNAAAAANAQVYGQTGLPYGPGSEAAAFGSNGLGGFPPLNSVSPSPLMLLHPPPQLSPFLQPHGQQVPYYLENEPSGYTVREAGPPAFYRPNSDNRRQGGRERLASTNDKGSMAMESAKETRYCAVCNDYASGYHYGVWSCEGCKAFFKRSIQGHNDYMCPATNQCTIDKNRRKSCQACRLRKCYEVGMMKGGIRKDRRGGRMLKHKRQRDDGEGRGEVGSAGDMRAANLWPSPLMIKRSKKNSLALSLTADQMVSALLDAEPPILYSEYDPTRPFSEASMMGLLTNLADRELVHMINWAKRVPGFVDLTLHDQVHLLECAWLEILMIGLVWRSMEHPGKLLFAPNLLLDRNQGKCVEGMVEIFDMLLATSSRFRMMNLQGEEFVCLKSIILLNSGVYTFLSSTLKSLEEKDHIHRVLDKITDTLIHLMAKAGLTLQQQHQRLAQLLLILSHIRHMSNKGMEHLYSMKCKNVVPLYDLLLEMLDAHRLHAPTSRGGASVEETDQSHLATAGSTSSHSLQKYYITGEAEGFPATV

Cytochrome P450 2C19 = Cytochrome P450 2C19 (Homo sapiens, UniProt P33261); assay: qHTS Assay for Inhibitors and Substrates of Cytochrome P450 2C19. [Related pubchem assays: 410 ]; assay type: ADME; conditions: read-out: Potency
[7] = inhibitors of Bluetongue virus cytopathic effect, confirmation, arbovirus, BSR cells (AID 1250); assay type: functional;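 also: protection from viral cytopathic effect measured as cell viability by ATP luminescence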
Cytochrome P450 3A4 = Cytochrome P450 3A4 (Homo sapiens, UniProt P08684);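 also: CYP3A4 tested as one member of a cytochrome P450 panel screen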
[8] = target: Bifunctional protein GlmU (Mycobacterium tuberculosis, UniProt P9WMN3); assay: Inhibitors of Mycobacterial Glucosamine-1-phosphate acetyl transferase (GlmU). Secondary screen.; set-up: species or system Mycobacterium tuberculosis H37Rv
[9] = target: T5, Long-chain-fatty-acid--AMP ligase FadD28 (Mycobacterium tuberculosis, UniProt P9WQ59); assay: Fluorescence polarization aasay to screen for inhibitors that compete for the binding of FadD28 to a bisubstrate Measured in Biochemical System Using Plate Reader - 2147-01_Inhibitor_Dose_CherryPick_Activity.; assay type: functional, Mycobacterium tuberculosis H37Rv
T5 sequence (P9WQ59 whole entry): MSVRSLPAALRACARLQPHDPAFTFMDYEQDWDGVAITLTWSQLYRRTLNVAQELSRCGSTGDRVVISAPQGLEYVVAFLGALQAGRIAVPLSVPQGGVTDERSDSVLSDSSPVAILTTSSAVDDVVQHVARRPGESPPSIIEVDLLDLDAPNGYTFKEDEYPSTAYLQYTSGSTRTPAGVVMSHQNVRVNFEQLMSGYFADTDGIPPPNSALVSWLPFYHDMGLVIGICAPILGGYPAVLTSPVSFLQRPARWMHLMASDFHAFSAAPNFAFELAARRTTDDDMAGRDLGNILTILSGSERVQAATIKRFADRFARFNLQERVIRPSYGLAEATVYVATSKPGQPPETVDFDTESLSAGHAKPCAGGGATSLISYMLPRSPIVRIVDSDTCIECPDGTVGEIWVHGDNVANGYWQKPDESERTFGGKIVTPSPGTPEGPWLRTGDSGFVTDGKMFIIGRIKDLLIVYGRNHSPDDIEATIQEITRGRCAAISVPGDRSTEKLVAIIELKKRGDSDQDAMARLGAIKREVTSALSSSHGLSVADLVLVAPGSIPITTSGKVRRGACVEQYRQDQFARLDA

Bifunctional protein GlmU, sequence (P9WMN3 whole entry): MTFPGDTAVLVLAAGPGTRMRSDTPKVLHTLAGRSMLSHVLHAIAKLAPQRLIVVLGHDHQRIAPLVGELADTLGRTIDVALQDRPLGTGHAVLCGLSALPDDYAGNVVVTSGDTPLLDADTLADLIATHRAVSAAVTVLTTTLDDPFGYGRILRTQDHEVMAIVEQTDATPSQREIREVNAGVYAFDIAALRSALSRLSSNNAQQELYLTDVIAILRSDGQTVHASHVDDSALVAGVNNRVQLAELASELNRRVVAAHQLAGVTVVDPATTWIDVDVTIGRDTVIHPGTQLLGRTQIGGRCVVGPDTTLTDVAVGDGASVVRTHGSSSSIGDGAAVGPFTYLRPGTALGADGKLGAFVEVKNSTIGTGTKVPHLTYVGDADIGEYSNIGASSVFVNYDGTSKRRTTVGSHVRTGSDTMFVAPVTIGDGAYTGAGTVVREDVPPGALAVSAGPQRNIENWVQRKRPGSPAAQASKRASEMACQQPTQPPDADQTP
Cytochrome P450 2C19, sequence (P33261 whole entry): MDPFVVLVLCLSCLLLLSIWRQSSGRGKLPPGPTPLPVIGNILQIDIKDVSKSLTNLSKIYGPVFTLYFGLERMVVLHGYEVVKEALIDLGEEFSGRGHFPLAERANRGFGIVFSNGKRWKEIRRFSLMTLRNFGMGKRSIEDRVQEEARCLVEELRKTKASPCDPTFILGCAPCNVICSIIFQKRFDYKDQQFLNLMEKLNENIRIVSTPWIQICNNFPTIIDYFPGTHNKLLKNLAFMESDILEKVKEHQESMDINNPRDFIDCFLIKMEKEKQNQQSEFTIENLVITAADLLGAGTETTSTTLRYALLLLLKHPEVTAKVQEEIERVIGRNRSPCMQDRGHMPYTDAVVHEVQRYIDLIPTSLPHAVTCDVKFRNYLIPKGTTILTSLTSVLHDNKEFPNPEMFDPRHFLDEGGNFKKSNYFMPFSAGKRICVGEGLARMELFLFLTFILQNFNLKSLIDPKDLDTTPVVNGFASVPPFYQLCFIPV
Cytochrome P450 3A4, sequence (P08684 whole entry): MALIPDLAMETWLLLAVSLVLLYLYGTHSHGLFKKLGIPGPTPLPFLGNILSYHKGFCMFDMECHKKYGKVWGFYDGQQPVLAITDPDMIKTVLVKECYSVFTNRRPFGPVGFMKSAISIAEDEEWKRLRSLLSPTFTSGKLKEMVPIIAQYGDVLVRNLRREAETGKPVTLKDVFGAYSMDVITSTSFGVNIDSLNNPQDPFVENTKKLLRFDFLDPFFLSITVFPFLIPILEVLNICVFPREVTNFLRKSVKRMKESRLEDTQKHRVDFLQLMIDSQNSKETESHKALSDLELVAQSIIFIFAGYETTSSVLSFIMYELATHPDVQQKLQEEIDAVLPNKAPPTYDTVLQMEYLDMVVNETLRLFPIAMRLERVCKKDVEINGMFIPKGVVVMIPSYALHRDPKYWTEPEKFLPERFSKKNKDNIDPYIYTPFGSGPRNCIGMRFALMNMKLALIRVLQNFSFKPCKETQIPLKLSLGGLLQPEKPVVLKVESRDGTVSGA
E3 ubiquitin-protein ligase Mdm2, sequence (Q00987 whole entry): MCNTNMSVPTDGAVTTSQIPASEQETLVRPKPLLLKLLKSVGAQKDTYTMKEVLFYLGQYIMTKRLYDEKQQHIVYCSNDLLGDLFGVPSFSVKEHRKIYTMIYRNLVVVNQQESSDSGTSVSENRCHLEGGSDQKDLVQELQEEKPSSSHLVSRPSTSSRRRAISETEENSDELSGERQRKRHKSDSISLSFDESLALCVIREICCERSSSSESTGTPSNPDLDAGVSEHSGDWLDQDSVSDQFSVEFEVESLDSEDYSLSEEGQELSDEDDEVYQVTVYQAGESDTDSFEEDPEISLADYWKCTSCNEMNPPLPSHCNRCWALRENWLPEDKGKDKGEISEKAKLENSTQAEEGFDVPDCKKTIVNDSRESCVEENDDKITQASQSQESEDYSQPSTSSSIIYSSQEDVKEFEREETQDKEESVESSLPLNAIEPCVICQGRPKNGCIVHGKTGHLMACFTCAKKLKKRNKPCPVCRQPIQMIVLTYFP

## CCOC(=O)C1C(c2ccccc2)N(C)OC1(O)C(F)(F)F (stereo not given)
[1]
  EC50: 9.58 µM (not active)

## Cc1ccc(/N=C/c2cccc(O)c2O)c(C)c1
[2]
  IC50: 23.3 µM (active)
[3]
  EC50: > 150 µM (not active)
Streptococcus
  EC50: 7.41 µM (active)
Streptokinase A
  EC50: > 150 µM (not active)
[4]
  IC50: 14 µM (active)

## O=C(Nc1cccnc1)c1cc(-c2ccc3c(c2)OCO3)on1
Protein skinhead-1
  IC50: > 100 µM (inactive)
[5]
  AC50: 5.5 µM (active)
[6]
  AC50: 5.56 µM (active)
Estrogen receptor
  EC50: 12.9 µM (not active)

## CC1C=CCCOC1c1ccccc1 (stereo not given)
Cytochrome P450 2C19
  AC50: 3.98 µM (inconclusive)

## C=CCSc1nc(O)c2sc3nc(C)cc(C)c3c2n1
[7]
  IC50: 25.4 µM (active)
Cytochrome P450 3A4
  AC50: 11.2 µM (inconclusive)

## Cc1cc(N)n(-c2ccc(Oc3ccccc3)c(S(=O)(=O)O)c2)n1
[8]
  IC50: 123 µM (active)
[9]
  AC50: > 100 µM (inactive)
